Source: patent US9656955B2, “Pyrrolidine derivatives, pharmaceutical compositions containing them, and their use in therapy” (AbbVie Deutschland GmbH & Co. KG, priority 2013, dated 2017)

biological target: human GlyT1c transporter (Homo sapiens (Human), UniProt P48067); experiment: Radioligand binding assays using recombinant CHO cell membranes expressing human GlyT1; conditions: radioligand binding, human GlyT1c transporter-expressing CHO cell membranes
Sequence (P48067 whole entry): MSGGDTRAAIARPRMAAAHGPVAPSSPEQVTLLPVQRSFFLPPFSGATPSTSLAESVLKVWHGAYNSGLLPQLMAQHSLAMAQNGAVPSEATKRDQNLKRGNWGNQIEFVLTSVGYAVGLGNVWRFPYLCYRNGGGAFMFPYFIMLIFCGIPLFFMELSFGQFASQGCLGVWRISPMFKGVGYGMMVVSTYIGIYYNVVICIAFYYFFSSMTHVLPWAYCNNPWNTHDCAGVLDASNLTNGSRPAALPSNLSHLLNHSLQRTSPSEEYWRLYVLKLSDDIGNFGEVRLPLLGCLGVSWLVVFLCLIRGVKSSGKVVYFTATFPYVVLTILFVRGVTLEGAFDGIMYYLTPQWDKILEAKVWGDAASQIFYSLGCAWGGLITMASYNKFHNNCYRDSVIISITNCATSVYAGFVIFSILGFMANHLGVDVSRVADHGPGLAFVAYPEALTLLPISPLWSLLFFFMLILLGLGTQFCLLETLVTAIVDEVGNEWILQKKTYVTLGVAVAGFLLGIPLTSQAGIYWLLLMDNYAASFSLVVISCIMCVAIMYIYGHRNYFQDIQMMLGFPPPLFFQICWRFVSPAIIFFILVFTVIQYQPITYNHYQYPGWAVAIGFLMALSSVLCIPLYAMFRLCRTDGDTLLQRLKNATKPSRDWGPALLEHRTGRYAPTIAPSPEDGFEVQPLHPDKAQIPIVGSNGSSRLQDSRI

Row | Structure (SMILES) | Ki [µM]
1 | Cn1cnc(S(=O)(=O)N2C[C@H](Nc3cc(OCC(F)(F)F)c(Cl)cn3)[C@@H](c3ccccc3)C2)c1 [Example 808, 5-chloro-N-{(3R,4S)-1-[(1-methyl-1H-imidazol-4-yl)sulfonyl]-4-phenylpyrrolidin-3-yl}-4-(2,2,2-trifluoroethoxy)pyridin-2-amine] | ≤ 0.01
2 | COC(=O)c1sccc1S(=O)(=O)N1CC(Nc2ccc(F)c(F)c2)C(c2ccccc2)C1 (stereo not drawn) [Example 489, methyl 3-({3-[(3,4-difluorophenyl)amino]-4-phenylpyrrolidin-1-yl}sulfonyl)thiophene-2-carboxylate] | ≤ 10
3 | CC1(C)C(=O)Nc2ccc(S(=O)(=O)N3CC(Nc4ccc(F)c(F)c4)C(c4ccccc4)C3)cc21 (stereo not drawn) [Example 478, 5-({3-[(3,4-difluorophenyl)amino]-4-phenylpyrrolidin-1-yl}sulfonyl)-3,3-dimethyl-1,3-dihydro-2H-indol-2-one] | ≤ 10
4 | CCCn1cc(C[C@@H]2CN(S(=O)(=O)c3cn(C)cn3)C[C@H]2c2ccccc2)nn1 [Example 659, 4-({(3S,4R)-1-[(1-methyl-1H-imidazol-4-yl)sulfonyl]-4-phenylpyrrolidin-3-yl}methyl)-1-propyl-1H-1,2,3-triazole] | ≤ 10
5 | Cn1cnc(S(=O)(=O)N2C[C@H](Nc3ccc(F)c(-c4cccnc4)c3)[C@@H](c3ccc(F)cc3)C2)c1 [Example 745, (3R,4S)-4-(4-fluorophenyl)-N-[4-fluoro-3-(pyridin-3-yl)phenyl]-1-[(1-methyl-1H-imidazol-4-yl)sulfonyl]pyrrolidin-3-amine] | ≤ 0.01
6 | O=S(=O)(c1ccc(Cl)s1)N1CC(Nc2ccc(F)c(F)c2)C(c2ccccc2)C1 (stereo not drawn) [Example 511, 1-[(5-chlorothiophen-2-yl)sulfonyl]-N-(3,4-difluorophenyl)-4-phenylpyrrolidin-3-amine] | ≤ 10
7 | Cc1cc(S(=O)(=O)N2CC(Nc3ccc(F)c(F)c3)C(c3ccccc3)C2)c(C)o1 (stereo not drawn) [Example 488, N-(3,4-difluorophenyl)-1-[(2,5-dimethylfuran-3-yl)sulfonyl]-4-phenylpyrrolidin-3-amine] | ≤ 10
8 | Cn1cnc(S(=O)(=O)N2C[C@H](Nc3cc(-c4ccc(Cl)cc4)ncn3)[C@@H](c3ccc(F)cc3)C2)c1 [Example 730, 6-(4-chlorophenyl)-N-{(3R,4S)-4-(4-fluorophenyl)-1-[(1-methyl-1H-imidazol-4-yl)sulfonyl]pyrrolidin-3-yl}pyrimidin-4-amine] | ≤ 0.01
9 | Cn1cc(S(=O)(=O)N2C[C@H](Nc3ccc(F)c(OC(F)(F)F)c3)[C@@H](c3ccc(F)cc3)C2)nn1 [Example 838, (3R,4S)-4-(4-fluorophenyl)-N-[4-fluoro-3-(trifluoromethoxy)phenyl]-1-[(1-methyl-1H-1,2,3-triazol-4-yl)sulfonyl]pyrrolidin-3-amine] | ≤ 0.01
10 | CCCCNC(=O)[C@@H]1CN(S(=O)(=O)c2cn(C)cn2)C[C@H]1c1ccc(F)cc1 [Example 581, (3S,4R)—N-butyl-4-(4-fluorophenyl)-1-[(1-methyl-1H-imidazol-4-yl)sulfonyl]pyrrolidine-3-carboxamide] | ≤ 0.1
11 | Cn1cnc(S(=O)(=O)N2C[C@H](NCc3csc(Cl)n3)[C@@H](c3ccccc3)C2)c1 [Example 562, (3R,4S)—N-[(2-chloro-1,3-thiazol-4-yl)methyl]-1-[(1-methyl-1H-imidazol-4-yl)sulfonyl]-4-phenylpyrrolidin-3-amine] | ≤ 10
12 | Cc1ccc(CO[C@H]2CN(S(=O)(=O)c3cn(C)cn3)C[C@@H]2c2ccc(F)cc2)cc1 [Example 731, 4-({(3S,4R)-3-(4-fluorophenyl)-4-[(4-methylbenzyl)oxy]pyrrolidin-1-yl}sulfonyl)-1-methyl-1H-imidazole] | ≤ 0.1
13 | Cc1ncc(S(=O)(=O)N2C[C@H](Nc3ccc(F)c(F)c3)[C@@H](c3ccc(F)cc3)C2)n1C [Example 757, (3R,4S)—N-(3,4-difluorophenyl)-1-[(1,2-dimethyl-1H-imidazol-5-yl)sulfonyl]-4-(4-fluorophenyl)pyrrolidin-3-amine] | ≤ 10
14 | Cn1cnc(S(=O)(=O)N2C[C@H](Nc3cc(Cl)ccn3)[C@@H](c3ccc(F)cc3)C2)c1 [Example 759, 4-chloro-N-{(3R,4S)-4-(4-fluorophenyl)-1-[(1-methyl-1H-imidazol-4-yl)sulfonyl]pyrrolidin-3-yl}pyridin-2-amine] | ≤ 0.01
15 | CC(C)OCCCNC(=O)[C@@H]1CN(S(=O)(=O)c2cn(C)cn2)C[C@H]1c1ccc(F)cc1 [Example 577, (3S,4R)-4-(4-fluorophenyl)-1-[(1-methyl-1H-imidazol-4-yl)sulfonyl]-N-[3-(propan-2-yloxy)propyl]pyrrolidine-3-carboxamide] | > 10
16 | Cn1cnc(S(=O)(=O)N2C[C@H](Nc3ccc(F)c(Cl)c3)[C@@H](c3ccc(F)cc3)C2)c1 [Example 352, (3R,4S)—N-(3-chloro-4-fluorophenyl)-4-(4-fluorophenyl)-1-[(1-methyl-1H-imidazol-4-yl)sulfonyl]pyrrolidin-3-amine] | ≤ 0.01
17 | Cn1cnc(S(=O)(=O)N2C[C@@H](NC(=O)c3ccc(C(F)(F)F)cc3)[C@@](O)(c3ccccc3)C2)c1 (relative stereo) [Example 538, N-{Trans-4-hydroxy-1-[(1-methyl-1H-imidazol-4-yl)sulfonyl]-4-phenylpyrrolidin-3-yl}-4-(trifluoromethyl)benzamide] | ≤ 10

Row | Structure (SMILES) | Ki [µM]
18 | CCCCCCN[C@H]1CN(S(=O)(=O)c2cn(C)cn2)C[C@@H]1c1ccccc1 [Example 548, (3R,4S)—N-hexyl-1-[(1-methyl-1H-imidazol-4-yl)sulfonyl]-4-phenylpyrrolidin-3-amine] | ≤ 0.01
19 | Cn1cnc(S(=O)(=O)N2C[C@@H](Nc3cccc(C#N)c3)[C@H](c3ccc(F)cc3)C2)c1 [Example 389, 3-({(3S,4R)-4-(4-fluorophenyl)-1-[(1-methyl-1H-imidazol-4-yl)sulfonyl]pyrrolidin-3-yl}amino)benzonitrile] | ≤ 10
20 | Cn1cnc(S(=O)(=O)N2C[C@H](NC(=O)c3ccc(Cl)nn3)[C@@H](c3ccccc3)C2)c1 [Example 419, 6-chloro-N-{(3R,4S)-1-[(1-methyl-1H-imidazol-4-yl)sulfonyl]-4-phenylpyrrolidin-3-yl}pyridazine-3-carboxamide] | ≥ 10
21 | CCCc1ccc(CN[C@H]2CN(S(=O)(=O)c3cn(C)cn3)C[C@@H]2c2ccccc2)o1 [Example 428, (3R,4S)-1-[(1-methyl-1H-imidazol-4-yl)sulfonyl]-4-phenyl-N-[(5-propylfuran-2-yl)methyl]pyrrolidin-3-amine] | ≤ 0.1
22 | Cc1cc(N[C@H]2CN(S(=O)(=O)c3cn(C)cn3)C[C@@H]2c2ccc(F)cc2)ncc1F [Example 748, 5-fluoro-N-{(3R,4S)-4-(4-fluorophenyl)-1-[(1-methyl-1H-imidazol-4-yl)sulfonyl]pyrrolidin-3-yl}-4-methylpyridin-2-amine] | ≤ 0.01
23 | Cn1cnc(S(=O)(=O)N2CC(Nc3nnccc3C(F)(F)F)C(c3ccc(F)cc3)C2)c1 (stereo not drawn) [Example 384, N-{4-(4-fluorophenyl)-1-[(1-methyl-1H-imidazol-4-yl)sulfonyl]pyrrolidin-3-yl}-4-(trifluoromethyl)pyridazin-3-amine] | ≤ 10
24 | Cn1cnc(S(=O)(=O)N2C[C@@H](c3ccccc3)[C@](C)(NCc3ccc(Cl)cc3)C2)c1 (relative stereo) [Example 354, Trans-N-(4-chlorobenzyl)-3-methyl-1-[(1-methyl-1H-imidazol-4-yl)sulfonyl]-4-phenylpyrrolidin-3-amine] | ≤ 1
25 | CC(C)Oc1cc(N[C@H]2CN(S(=O)(=O)c3cn(C)cn3)C[C@@H]2c2ccc(F)cc2)ncn1 [Example 716, N-{(3R,4S)-4-(4-fluorophenyl)-1-[(1-methyl-1H-imidazol-4-yl)sulfonyl]pyrrolidin-3-yl}-6-(propan-2-yloxy)pyrimidin-4-amine] | ≤ 0.1
26 | CCCCCCN[C@H]1CN(S(=O)(=O)c2cn(C)cn2)C[C@@H]1c1ccc(F)cc1 [Example 665, (3R,4S)-4-(4-fluorophenyl)-N-hexyl-1-[(1-methyl-1H-imidazol-4-yl)sulfonyl]pyrrolidin-3-amine] | ≤ 0.01
27 | Cn1cnc(S(=O)(=O)N2CC(c3ccc(F)cc3)C(O)(Cc3ccccc3)C2)c1 (stereo not drawn) [Example 382, 3-benzyl-4-(4-fluorophenyl)-1-[(1-methyl-1H-imidazol-4-yl)sulfonyl]pyrrolidin-3-ol] | ≤ 0.1
28 | Cn1cnc(S(=O)(=O)N2C[C@H](NCC3CCOC(C)(C)C3)[C@@H](c3ccccc3)C2)c1 (stereo partly drawn) [Example 557, (3R,4S)—N-[(2,2-dimethyltetrahydro-2H-pyran-4-yl)methyl]-1-[(1-methyl-1H-imidazol-4-yl)sulfonyl]-4-phenylpyrrolidin-3-amine] | ≤ 10
29 | Cc1cc(S(=O)(=O)N2CC(Nc3ccc(F)c(F)c3)C(c3ccccc3)C2)n(C)n1 (stereo not drawn) [Example 482, N-(3,4-difluorophenyl)-1-[(1,3-dimethyl-1H-pyrazol-5-yl)sulfonyl]-4-phenylpyrrolidin-3-amine] | ≤ 10
30 | Cn1cnc(S(=O)(=O)N2C[C@@H](C(=O)c3ccc(F)cc3)[C@H](c3ccc(F)cc3)C2)c1 (relative stereo) [Example 303, (4-fluorophenyl){trans-4-(4-fluorophenyl)-1-[(1-methyl-1H-imidazol-4-yl)sulfonyl]pyrrolidin-3-yl}methasone] | ≤ 10
31 | Cn1cnc(S(=O)(=O)N2C[C@H](Nc3cc(OCC4CNC4)ncn3)[C@@H](c3ccc(F)cc3)C2)c1 [Example 778, 6-(azetidin-3-ylmethoxy)-N-{(3R,4S)-4-(4-fluorophenyl)-1-[(1-methyl-1H-imidazol-4-yl)sulfonyl]pyrrolidin-3-yl}pyrimidin-4-amine] | ≥ 10
32 | Cn1nccc1S(=O)(=O)N1CC(Nc2ccc(F)c(F)c2)C(c2ccccc2)C1 (stereo not drawn) [Example 516, N-(3,4-difluorophenyl)-1-[(1-methyl-1H-pyrazol-5-yl)sulfonyl]-4-phenylpyrrolidin-3-amine] | ≤ 10
33 | Cn1cnc(S(=O)(=O)N2C[C@@H](c3ccccc3)[C@](C)(NCc3ccc(C(F)(F)F)cc3)C2)c1 (relative stereo) [Example 355, Trans-3-methyl-1-[(1-methyl-1H-imidazol-4-yl)sulfonyl]-4-phenyl-N-[4-(trifluoromethyl)benzyl]pyrrolidin-3-amine] | ≤ 1
